Reference: patent publication US8012983B2, “Substituted triazolopyrazines useful for the treatment of degenerative and inflammatory diseases” (Galapagos NV, priority 2008, dated 2011)

How the values were obtained:
[1] = tested on: MMP1 expression by activated synovial fibroblasts (RASFs); test: 'MMP assay': complex trigger-induced MMP1 expression by synovial fibroblasts (MMP1 ELISA); assay type: cell-based; conditions: Homo sapiens, Fibroblast; RASFs, complex trigger, 48 hrs; read-out: MMP1 IC50
Procedure, shortened: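 Synovial fibroblasts seeded at 3,000 cells/well, treated with compound, then triggered with supernatant of TNF-α-treated THP-1 cells, diluted in M199 with low FBS. MMP1 in supernatant quantified by sandwich ELISA with biotinylated anti-MMP1 and streptavidin-HRP chemiluminescent detection.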

[2] = Tolerability of compounds in healthy mice (body weight); assay type: in vivo; conditions: 100 mg/kg/d, po, up to two weeks, DBA/1J mice, FIG. 6A
Procedure: This protocol is designed to assess the tolerability of the compounds of the invention in healthy DBA/1J mice to determine the “therapeutic window” as defined by the dosing range between efficacious (mouse therapeutic Collagen-Induced Arthritis model) and toxic doses.
Compounds are prepared for a dosing regimen of 100 mg/kg/d, po, free base, in a standard volume of injection of 0.1 mL/10 g of mice (equivalent to 10 mg/1 mL). For solution preparations, compounds were dissolved in 0.5% methyl-cellulose and 1% DMSO, once a week.
Groups are randomized based on body weight and treated for up to two weeks. Each group contained 5 mice and received either test compound at 100 mg/kg, a comparison compound at 100 mg/kg/d (Compound A) or vehicle on a daily basis in a dosing volume of 200 μL per mouse.
Potential drug toxicity is monitored by observation every day and by recording body weights three times a week for weight loss. All statistical analyses were performed using Student's t test.
To assess the general tolerability of the treatments, the total body weight is followed throughout the course of the study.

Row | SMILES | IC50 [1] | General tolerability: total body weight compared to the vehicle [2]
1 | CC(C)N1C[C@@H]2C[C@H]1CN2c1ccc(Nc2ncc(-c3ccc4c(c3)CNC4=O)n3ncnc23)cc1 [Compound 1, 5-{8-[4-((1S,4S)-5-Isopropyl-2,5-diaza-bicyclo[2.2.1]hept-2-yl)-phenylamino]-[1,2,4]triazolo[1,5-a]pyrazin-5-yl}-2,3-dihydro-isoindol-1-one] | > 1 µM | no statistically significant difference
2 | CC(C)N1C[C@@H]2C[C@H]1CN2c1ccc(Nc2ncc(-c3coc(C(N)=O)c3)n3ncnc23)cc1 [Compound 2, 4-{8-[4-((1S,4S)-5-Isopropyl-2,5-diaza-bicyclo[2.2.1]hept-2-yl)-phenylamino]-[1,2,4]triazolo[1,5-a]pyrazin-5-yl}-furan-2-carboxamide] | 0.001 to 1 µM | no statistically significant difference
